From patent publication US10966978B2, “Dose and regimen for HDM2-p53 interaction inhibitors” (Novartis AG, priority 2016, dated 2021)
Read-outs that look alike come from different tables or passages of the source.

System: patients with advanced TP53 wild-type (WT) leukemias
From the text: Patients with Ph+ ALL who show early markers of relapse in MRD surveillance can be considered for inclusion as long as other therapies such as TKIs are exhausted or cannot be given. • Tumor of the patient is TP53 wt characterized by, at a minimum, no mutations in exons 5, 6, 7 and 8, and the p53 status was obtained from a bone-marrow sample, collected no longer than 3 months before signing the main ICF. Safety and Tolerability Profile of Regimen 1B in Hematological Tumors

SMILES: COc1ncc(-c2nc3c(n2C(C)C)[C@H](c2ccc(Cl)cc2)N(c2cc(Cl)cn(C)c2=O)C3=O)c(OC)n1 [HDM201, (S)-5-(5-Chloro-1-methyl-2-oxo-1,2-dihydro-pyridin-3-yl)-6-(4-chloro-phenyl)-2-(2,4-dimethoxy-pyrimidin-5-yl)-1-isopropyl-5,6-dihydro-1H-pyrrolo[3,4-d]imidazol-4-one]
- AE: Fatigue (Regimen 1A N = 16, All Grades): 4 (25.0) n (%)
- AE: Febrile Neutropenia (Regimen 1A N = 16, All Grades): 4 (25.0) n (%)
- AE: Gamma-Glutamyltransferase Increased (Regimen 1A N = 16, All Grades): 2 (12.5) n (%)
- AE: General Physical Health Deterioration (Regimen 1A N = 16, All Grades): 2 (12.5) n (%)
- AE: Gingival Bleeding (Regimen 1A N = 16, All Grades): 2 (12.5) n (%)
- AE: Graft Versus Host Disease (Regimen 1A N = 16, All Grades): 1 (6.3) n (%)
- AE: Haemoglobin Decreased (Regimen 1A N = 16, All Grades): 1 (6.3) n (%)
- AE: Headache (Regimen 1A N = 16, All Grades): 1 (6.3) n (%)
- AE: Hyperbilirubinaemia (Regimen 1A N = 16, All Grades): 1 (6.3) n (%)
- AE: Hyperglycaemia (Regimen 1A N = 16, All Grades): 1 (6.3) n (%)
- AE: Hyperkalaemia (Regimen 1A N = 16, All Grades): 0 n (%)
- AE: Hyperphosphataemia (Regimen 1A N = 16, All Grades): 1 (6.3) n (%)
- AE: Hyperuricaemia (Regimen 1A N = 16, All Grades): 2 (12.5) n (%)
- AE: Hypoalbuminaemia (Regimen 1A N = 16, All Grades): 1 (6.3) n (%)
- AE: Hypocalcaemia (Regimen 1A N = 16, All Grades): 2 (12.5) n (%)
- AE: Hypokalaemia (Regimen 1A N = 16, All Grades): 0 n (%)
- AE: Hypomagnesaemia (Regimen 1A N = 16, All Grades): 1 (6.3) n (%)
- AE: Hyponatraemia (Regimen 1A N = 16, All Grades): 1 (6.3) n (%)
- AE: Hypophosphataemia (Regimen 1A N = 16, All Grades): 2 (12.5) n (%)
- AE: Hypotension (Regimen 1A N = 16, All Grades): 1 (6.3) n (%)
- AE: Infection (Regimen 1A N = 16, All Grades): 1 (6.3) n (%)
- AE: Infective Glossitis (Regimen 1A N = 16, All Grades): 0 n (%)
- AE: Iron Overload (Regimen 1A N = 16, All Grades): 1 (6.3) n (%)
- AE: Leukopenia (Regimen 1A N = 16, All Grades): 2 (12.5) n (%)
- AE: Lip Oedema (Regimen 1A N = 16, All Grades): 1 (6.3) n (%)
- AE: Lipase Increased (Regimen 1A N = 16, All Grades): 3 (18.8) n (%)
- AE: Macular Oedema (Regimen 1A N = 16, All Grades): 0 n (%)
- AE: Malaise (Regimen 1A N = 16, All Grades): 1 (6.3) n (%)
- AE: Mouth Haemorrhage (Regimen 1A N = 16, All Grades): 2 (12.5) n (%)
- AE: Nausea (Regimen 1A N = 16, All Grades): 10 (62.5) n (%)
- AE: Neutropenia/Neutrophil Count Decreased (Regimen 1A N = 16, All Grades): 6 (37.5) n (%)
- AE: Oedema (Regimen 1A N = 16, All Grades): 1 (6.3) n (%)
- AE: Oral Disorder (Regimen 1A N = 16, All Grades): 1 (6.3) n (%)
- AE: Pain In Extremity (Regimen 1A N = 16, All Grades): 1 (6.3) n (%)
- AE: Pancytopenia (Regimen 1A N = 16, All Grades): 0 n (%)
- AE: Pneumonia (Regimen 1A N = 16, All Grades): 1 (6.3) n (%)
- AE: Pollakiuria (Regimen 1A N = 16, All Grades): 1 (6.3) n (%)
- AE: Pyrexia (Regimen 1A N = 16, All Grades): 3 (18.8) n (%)
- AE: Rash (Regimen 1A N = 16, All Grades): 1 (6.3) n (%)
- AE: Rash Erythematous (Regimen 1A N = 16, All Grades): 1 (6.3) n (%)
- AE: Rash Papular (Regimen 1A N = 16, All Grades): 1 (6.3) n (%)
- AE: Rectal Haemorrhage (Regimen 1A N = 16, All Grades): 0 n (%)
- AE: Renal Failure (Regimen 1A N = 16, All Grades): 0 n (%)
- AE: Skin Exfoliation (Regimen 1A N = 16, All Grades): 1 (6.3) n (%)
- AE: Stomatitis (Regimen 1A N = 16, All Grades): 1 (6.3) n (%)
- AE: Subarachnoid Haemorrhage (Regimen 1A N = 16, All Grades): 1 (6.3) n (%)
- AE: Thrombocytopenia/Platelet Count Decreased (Regimen 1A N = 16, All Grades): 8 (50.0) n (%)
- AE: Total (Regimen 1A N = 16, All Grades): 15 (93.8) n (%)
- AE: Tumour Lysis Syndrome (Regimen 1A N = 16, All Grades): 7 (43.8) n (%)
- AE: Vomiting (Regimen 1A N = 16, All Grades): 5 (31.3) n (%)
- AE: Weight Decreased (Regimen 1A N = 16, All Grades): 1 (6.3) n (%)
- AE: White Blood Cell Count Decreased (Regimen 1A N = 16, All Grades): 1 (6.3) n (%)
- AE: Abdominal Discomfort (Regimen 1A N = 16, Grade 3/4): 0 n (%)
- AE: Abdominal Pain (Regimen 1A N = 16, Grade 3/4): 0 n (%)
- AE: Abdominal Pain Upper (Regimen 1A N = 16, Grade 3/4): 0 n (%)
- AE: Acute Kidney Injury (Regimen 1A N = 16, Grade 3/4): 0 n (%)
- AE: Amylase Increased (Regimen 1A N = 16, Grade 3/4): 0 n (%)
- AE: Anaemia (Regimen 1A N = 16, Grade 3/4): 4 (25.0) n (%)
- AE: Arthralgia (Regimen 1A N = 16, Grade 3/4): 0 n (%)
- AE: Asthenia (Regimen 1A N = 16, Grade 3/4): 0 n (%)
- AE: Atrial Fibrillation (Regimen 1A N = 16, Grade 3/4): 0 n (%)
- AE: Atypical Pneumonia (Regimen 1A N = 16, Grade 3/4): 0 n (%)
- AE: Balanitis Candida (Regimen 1A N = 16, Grade 3/4): 0 n (%)
- AE: Blood Alkaline Phosphatase Increased (Regimen 1A N = 16, Grade 3/4): 0 n (%)
- AE: Blood Bilirubin Increased (Regimen 1A N = 16, Grade 3/4): 0 n (%)
- AE: Blood Creatinine Increased (Regimen 1A N = 16, Grade 3/4): 0 n (%)
- AE: Blood Phosphorus Increased (Regimen 1A N = 16, Grade 3/4): 0 n (%)
- AE: Blood Uric Acid Increased (Regimen 1A N = 16, Grade 3/4): 1 (6.3) n (%)
- AE: Bone Marrow Failure (Regimen 1A N = 16, Grade 3/4): 0 n (%)
- AE: C-Reactive Protein Increased (Regimen 1A N = 16, Grade 3/4): 0 n (%)
- AE: Cardiac Failure (Regimen 1A N = 16, Grade 3/4): 0 n (%)
- AE: Cellulitis (Regimen 1A N = 16, Grade 3/4): 0 n (%)
- AE: Chronic Graft Versus Host Disease (Regimen 1A N = 16, Grade 3/4): 1 (6.3) n (%)
- AE: Conjunctival Haemorrhage (Regimen 1A N = 16, Grade 3/4): 0 n (%)
- AE: Constipation (Regimen 1A N = 16, Grade 3/4): 0 n (%)
- AE: Cough (Regimen 1A N = 16, Grade 3/4): 0 n (%)
- AE: Cystitis Viral (Regimen 1A N = 16, Grade 3/4): 0 n (%)
- AE: Cytomegalovirus Infection (Regimen 1A N = 16, Grade 3/4): 0 n (%)
- AE: Decreased Appetite (Regimen 1A N = 16, Grade 3/4): 0 n (%)
- AE: Diarrhoea (Regimen 1A N = 16, Grade 3/4): 0 n (%)
- AE: Dyspepsia (Regimen 1A N = 16, Grade 3/4): 0 n (%)
- AE: Dyspnoea (Regimen 1A N = 16, Grade 3/4): 1 (6.3) n (%)
- AE: Epistaxis (Regimen 1A N = 16, Grade 3/4): 0 n (%)
- AE: Fatigue (Regimen 1A N = 16, Grade 3/4): 0 n (%)
- AE: Febrile Neutropenia (Regimen 1A N = 16, Grade 3/4): 4 (25.0) n (%)
- AE: Gamma-Glutamyltransferase Increased (Regimen 1A N = 16, Grade 3/4): 1 (6.3) n (%)
- AE: General Physical Health Deterioration (Regimen 1A N = 16, Grade 3/4): 0 n (%)
- AE: Gingival Bleeding (Regimen 1A N = 16, Grade 3/4): 0 n (%)
- AE: Graft Versus Host Disease (Regimen 1A N = 16, Grade 3/4): 0 n (%)
- AE: Haemoglobin Decreased (Regimen 1A N = 16, Grade 3/4): 0 n (%)
- AE: Headache (Regimen 1A N = 16, Grade 3/4): 0 n (%)
- AE: Hyperbilirubinaemia (Regimen 1A N = 16, Grade 3/4): 0 n (%)
- AE: Hyperglycaemia (Regimen 1A N = 16, Grade 3/4): 0 n (%)
- AE: Hyperkalaemia (Regimen 1A N = 16, Grade 3/4): 0 n (%)
- AE: Hyperphosphataemia (Regimen 1A N = 16, Grade 3/4): 0 n (%)
- AE: Hyperuricaemia (Regimen 1A N = 16, Grade 3/4): 1 (6.3) n (%)
- AE: Hypoalbuminaemia (Regimen 1A N = 16, Grade 3/4): 0 n (%)
- AE: Hypocalcaemia (Regimen 1A N = 16, Grade 3/4): 0 n (%)
- AE: Hypokalaemia (Regimen 1A N = 16, Grade 3/4): 0 n (%)
- AE: Hypomagnesaemia (Regimen 1A N = 16, Grade 3/4): 0 n (%)
- AE: Hyponatraemia (Regimen 1A N = 16, Grade 3/4): 0 n (%)
- AE: Hypophosphataemia (Regimen 1A N = 16, Grade 3/4): 2 (12.5) n (%)
- AE: Hypotension (Regimen 1A N = 16, Grade 3/4): 0 n (%)
- AE: Infection (Regimen 1A N = 16, Grade 3/4): 1 (6.3) n (%)
- AE: Infective Glossitis (Regimen 1A N = 16, Grade 3/4): 0 n (%)
